# According to publication PMC12136037, “Type II kinase inhibitors that target Parkinson’s disease–associated LRRK2” (Science Advances, 2025):
# Legend:
# Test in all cases: 33PanQinase kinome-wide selectivity profile (Reaction Biology)
# Type in all cases: biochemical
# [1] = target: T1, 350 wild-type kinases (Homo sapiens, UniProt P49760); conditions: kinase CLK2, ATP 0,3 µM, singlicate
# T1 construct: purchased Reaction Biology (assay service)
# Protocol: (§1) Compound RN341 was tested at two concentrations of 1 and 10 μM against a panel of 350 wild-type kinases in the ^33PanQinase assay. The assay was performed by Reaction Biology (www.reactionbiology.com/services/kinase-assays/kinase-panel-screening/).
# [2] = target: T2, 350 wild-type kinases (Homo sapiens, UniProt Q5VT25); conditions: kinase CDC42BPA, ATP 0,1 µM, singlicate
# T2 construct: purchased Reaction Biology (assay service)
# Protocol: as §1
# [3] = target: T3, 350 wild-type kinases (Homo sapiens, UniProt Q13554); conditions: kinase CAMK2B, ATP 3 µM, singlicate
# T3 construct: purchased Reaction Biology (assay service)
# Protocol: as §1
# [4] = target: T4, 350 wild-type kinases (Homo sapiens, UniProt O43293); conditions: kinase DAPK3, ATP 0,1 µM, singlicate
# T4 construct: purchased Reaction Biology (assay service)
# Protocol: as §1
# [5] = target: T5, 350 wild-type kinases (Homo sapiens, UniProt P49674); conditions: kinase CK1epsilon, ATP 0,3 µM, singlicate
# T5 construct: purchased Reaction Biology (assay service)
# Protocol: as §1
# [6] = target: T6, 350 wild-type kinases (Homo sapiens, UniProt P51813); conditions: kinase BMX, ATP 1 µM, singlicate
# T6 construct: purchased Reaction Biology (assay service)
# Protocol: as §1
# [7] = target: T7, 350 wild-type kinases (Homo sapiens, UniProt Q14004); conditions: kinase CDK13/CycK, ATP 0,1 µM, singlicate
# T7 construct: purchased Reaction Biology (assay service)
# Protocol: as §1
# [8] = target: T8, 350 wild-type kinases (Homo sapiens, UniProt P21127); conditions: kinase CDK11B/CycK, ATP 0,1 µM, singlicate
# T8 construct: purchased Reaction Biology (assay service)
# Protocol: as §1
# [9] = target: T9, 350 wild-type kinases (Homo sapiens, UniProt P48730); conditions: kinase CK1delta, ATP 0,3 µM, singlicate
# T9 construct: purchased Reaction Biology (assay service)
# Protocol: as §1
# [10] = target: T10, 350 wild-type kinases (Homo sapiens, UniProt O94921); conditions: kinase CDK14/CycY, ATP 0,1 µM, singlicate
# T10 construct: purchased Reaction Biology (assay service)
# Protocol: as §1
# [11] = target: T11, 350 wild-type kinases (Homo sapiens, UniProt P68400); conditions: kinase CK2alpha1, ATP 0,1 µM, singlicate
# T11 construct: purchased Reaction Biology (assay service)
# Protocol: as §1
# [12] = target: T12, 350 wild-type kinases (Homo sapiens, UniProt Q13557); conditions: kinase CAMK2D, ATP 1 µM, singlicate
# T12 construct: purchased Reaction Biology (assay service)
# Protocol: as §1
# [13] = target: T13, 350 wild-type kinases (Homo sapiens, UniProt Q00535); conditions: singlicate; for Residual activity (% of control), CDK5/p25NCK: kinase CDK5/p25NCK, ATP 0,3 µM; for Residual activity (% of control), CDK5/p35NCK: kinase CDK5/p35NCK, ATP 0,1 µM
# T13 construct: purchased Reaction Biology (assay service)
# Protocol: as §1
# [14] = target: T14, 350 wild-type kinases (Homo sapiens, UniProt Q9BWU1); conditions: kinase CDK19/CycC, ATP 3 µM, singlicate
# T14 construct: purchased Reaction Biology (assay service)
# Protocol: as §1
# [15] = target: T15, 350 wild-type kinases (Homo sapiens, UniProt Q07912); conditions: kinase ACK1, ATP 1 µM, singlicate
# T15 construct: purchased Reaction Biology (assay service)
# Protocol: as §1
# [16] = target: T16, 350 wild-type kinases (Homo sapiens, UniProt Q99683); conditions: kinase ASK1, ATP 3 µM, singlicate
# T16 construct: purchased Reaction Biology (assay service)
# Protocol: as §1
# [17] = target: T17, 350 wild-type kinases (Homo sapiens, UniProt Q96GD4); conditions: kinase AuroraB, ATP 10 µM, singlicate
# T17 construct: purchased Reaction Biology (assay service)
# Protocol: as §1
# [18] = target: T18, 350 wild-type kinases (Homo sapiens, UniProt P49336); conditions: kinase CDK8/CycC, ATP 1 µM, singlicate
# T18 construct: purchased Reaction Biology (assay service)
# Protocol: as §1
# [19] = target: T19, 350 wild-type kinases (Homo sapiens, UniProt P53355); conditions: kinase DAPK1, ATP 0,1 µM, singlicate
# T19 construct: purchased Reaction Biology (assay service)
# Protocol: as §1
# [20] = target: T20, 350 wild-type kinases (Homo sapiens, UniProt P19784); conditions: kinase CK2alpha2, ATP 0,1 µM, singlicate
# T20 construct: purchased Reaction Biology (assay service)
# Protocol: as §1
# [21] = target: T21, 350 wild-type kinases (Homo sapiens, UniProt Q13627); conditions: kinase DYRK1A, ATP 1 µM, singlicate
# T21 construct: purchased Reaction Biology (assay service)
# Protocol: as §1
# [22] = target: T22, 350 wild-type kinases (Homo sapiens, UniProt Q15131); conditions: kinase CDK10/CycQ, ATP 3 µM, singlicate
# T22 construct: purchased Reaction Biology (assay service)
# Protocol: as §1
# [23] = target: T23, 350 wild-type kinases (Homo sapiens, UniProt Q9Y6M4); conditions: kinase CK1gamma3, ATP 0,1 µM, singlicate
# T23 construct: purchased Reaction Biology (assay service)
# Protocol: as §1
# T13 sequence (Q00535 whole entry): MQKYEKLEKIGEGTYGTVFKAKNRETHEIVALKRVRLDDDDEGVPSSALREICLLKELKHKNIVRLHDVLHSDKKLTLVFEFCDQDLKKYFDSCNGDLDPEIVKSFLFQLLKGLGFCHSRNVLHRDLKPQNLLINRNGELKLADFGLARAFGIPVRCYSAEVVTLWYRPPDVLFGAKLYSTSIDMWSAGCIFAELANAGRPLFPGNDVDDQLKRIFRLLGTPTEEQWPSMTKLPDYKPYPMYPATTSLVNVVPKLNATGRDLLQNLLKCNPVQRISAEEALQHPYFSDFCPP
# T1 sequence (P49760 whole entry): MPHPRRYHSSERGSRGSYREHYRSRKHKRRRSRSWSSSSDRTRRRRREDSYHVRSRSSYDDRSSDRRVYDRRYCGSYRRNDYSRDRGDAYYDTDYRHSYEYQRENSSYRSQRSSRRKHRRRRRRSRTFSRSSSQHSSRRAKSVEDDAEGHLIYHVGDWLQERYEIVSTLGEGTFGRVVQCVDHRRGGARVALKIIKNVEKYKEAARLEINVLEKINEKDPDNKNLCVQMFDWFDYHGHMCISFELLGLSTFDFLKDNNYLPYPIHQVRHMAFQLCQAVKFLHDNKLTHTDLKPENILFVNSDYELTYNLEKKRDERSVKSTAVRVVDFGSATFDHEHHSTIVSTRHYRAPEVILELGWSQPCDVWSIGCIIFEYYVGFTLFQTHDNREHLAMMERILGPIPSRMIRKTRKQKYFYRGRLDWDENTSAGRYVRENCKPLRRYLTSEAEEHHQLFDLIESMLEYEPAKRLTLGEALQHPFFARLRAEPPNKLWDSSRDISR
# T8 sequence (P21127 whole entry): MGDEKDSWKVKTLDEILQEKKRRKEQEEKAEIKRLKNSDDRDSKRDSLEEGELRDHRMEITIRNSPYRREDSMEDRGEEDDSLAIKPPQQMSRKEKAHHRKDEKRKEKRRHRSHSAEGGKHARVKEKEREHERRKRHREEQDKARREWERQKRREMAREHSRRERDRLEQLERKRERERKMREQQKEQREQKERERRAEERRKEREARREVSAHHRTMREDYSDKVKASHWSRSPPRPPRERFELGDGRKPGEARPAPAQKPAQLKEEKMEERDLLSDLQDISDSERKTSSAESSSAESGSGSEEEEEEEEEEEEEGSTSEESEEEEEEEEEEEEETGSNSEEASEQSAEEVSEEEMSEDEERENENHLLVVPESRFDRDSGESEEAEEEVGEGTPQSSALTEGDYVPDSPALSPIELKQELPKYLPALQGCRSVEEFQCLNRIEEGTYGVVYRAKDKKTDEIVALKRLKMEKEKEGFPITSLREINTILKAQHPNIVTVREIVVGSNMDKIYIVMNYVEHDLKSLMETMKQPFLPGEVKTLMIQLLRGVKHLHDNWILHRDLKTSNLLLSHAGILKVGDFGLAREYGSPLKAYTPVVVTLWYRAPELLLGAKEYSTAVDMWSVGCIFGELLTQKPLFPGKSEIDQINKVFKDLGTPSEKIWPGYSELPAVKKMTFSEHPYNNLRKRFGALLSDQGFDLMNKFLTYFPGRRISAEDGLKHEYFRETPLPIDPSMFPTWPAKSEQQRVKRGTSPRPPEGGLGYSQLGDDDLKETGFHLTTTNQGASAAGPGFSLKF
# T12 sequence (Q13557 whole entry): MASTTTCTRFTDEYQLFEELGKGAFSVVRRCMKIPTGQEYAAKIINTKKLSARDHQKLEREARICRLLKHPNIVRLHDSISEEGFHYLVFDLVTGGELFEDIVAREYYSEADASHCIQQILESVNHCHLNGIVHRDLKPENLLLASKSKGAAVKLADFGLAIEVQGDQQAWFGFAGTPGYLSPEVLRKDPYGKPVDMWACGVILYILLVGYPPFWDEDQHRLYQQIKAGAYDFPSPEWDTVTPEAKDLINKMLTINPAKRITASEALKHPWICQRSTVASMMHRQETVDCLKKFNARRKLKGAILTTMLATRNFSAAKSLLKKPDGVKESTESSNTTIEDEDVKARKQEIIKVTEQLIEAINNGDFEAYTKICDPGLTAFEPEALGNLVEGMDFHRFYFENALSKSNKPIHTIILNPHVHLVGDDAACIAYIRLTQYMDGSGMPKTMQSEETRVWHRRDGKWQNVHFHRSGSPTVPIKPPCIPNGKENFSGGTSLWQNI
# T2 sequence (Q5VT25 whole entry): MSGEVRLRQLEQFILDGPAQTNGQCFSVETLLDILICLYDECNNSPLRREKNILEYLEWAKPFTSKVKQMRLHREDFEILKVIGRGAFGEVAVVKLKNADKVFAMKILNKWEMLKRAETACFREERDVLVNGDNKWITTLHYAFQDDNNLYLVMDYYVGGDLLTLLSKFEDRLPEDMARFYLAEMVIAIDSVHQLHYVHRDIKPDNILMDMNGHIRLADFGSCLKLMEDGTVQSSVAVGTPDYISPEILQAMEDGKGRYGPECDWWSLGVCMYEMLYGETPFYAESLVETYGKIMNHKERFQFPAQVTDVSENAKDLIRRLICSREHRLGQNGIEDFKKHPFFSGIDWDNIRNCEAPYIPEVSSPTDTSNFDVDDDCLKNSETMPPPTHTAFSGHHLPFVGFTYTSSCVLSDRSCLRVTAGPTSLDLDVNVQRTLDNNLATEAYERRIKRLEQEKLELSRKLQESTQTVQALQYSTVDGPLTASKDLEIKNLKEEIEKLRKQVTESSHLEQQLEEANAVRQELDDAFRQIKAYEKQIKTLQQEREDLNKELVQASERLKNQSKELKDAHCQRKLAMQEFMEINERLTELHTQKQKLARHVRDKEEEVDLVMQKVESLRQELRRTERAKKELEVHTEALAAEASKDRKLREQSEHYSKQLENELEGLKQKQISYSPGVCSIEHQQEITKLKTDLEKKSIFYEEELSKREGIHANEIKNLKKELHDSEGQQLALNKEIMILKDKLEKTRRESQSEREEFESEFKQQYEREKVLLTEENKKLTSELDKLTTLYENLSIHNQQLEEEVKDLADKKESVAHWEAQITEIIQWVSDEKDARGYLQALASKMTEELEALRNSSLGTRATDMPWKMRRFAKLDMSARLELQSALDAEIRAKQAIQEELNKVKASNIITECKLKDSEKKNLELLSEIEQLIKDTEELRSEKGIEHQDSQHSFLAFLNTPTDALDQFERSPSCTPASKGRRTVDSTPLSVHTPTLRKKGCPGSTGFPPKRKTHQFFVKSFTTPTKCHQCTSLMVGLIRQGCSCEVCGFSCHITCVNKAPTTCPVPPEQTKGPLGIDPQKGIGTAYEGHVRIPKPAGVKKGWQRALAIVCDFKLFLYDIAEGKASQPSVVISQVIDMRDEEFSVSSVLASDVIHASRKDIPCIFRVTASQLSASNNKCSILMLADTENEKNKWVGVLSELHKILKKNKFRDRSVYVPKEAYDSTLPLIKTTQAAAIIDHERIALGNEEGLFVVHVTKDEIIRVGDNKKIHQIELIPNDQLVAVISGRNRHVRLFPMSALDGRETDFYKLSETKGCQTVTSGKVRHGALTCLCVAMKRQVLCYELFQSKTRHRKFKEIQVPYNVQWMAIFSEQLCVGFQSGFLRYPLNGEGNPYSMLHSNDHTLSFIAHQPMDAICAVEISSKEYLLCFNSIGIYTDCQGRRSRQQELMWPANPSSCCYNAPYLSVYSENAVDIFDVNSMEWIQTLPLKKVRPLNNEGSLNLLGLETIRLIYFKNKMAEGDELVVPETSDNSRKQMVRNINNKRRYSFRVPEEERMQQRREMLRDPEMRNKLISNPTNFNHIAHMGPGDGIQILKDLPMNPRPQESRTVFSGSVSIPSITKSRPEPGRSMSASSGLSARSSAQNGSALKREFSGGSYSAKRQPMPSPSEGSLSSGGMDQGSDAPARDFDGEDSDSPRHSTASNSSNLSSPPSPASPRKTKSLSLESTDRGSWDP
# T5 sequence (P49674 whole entry): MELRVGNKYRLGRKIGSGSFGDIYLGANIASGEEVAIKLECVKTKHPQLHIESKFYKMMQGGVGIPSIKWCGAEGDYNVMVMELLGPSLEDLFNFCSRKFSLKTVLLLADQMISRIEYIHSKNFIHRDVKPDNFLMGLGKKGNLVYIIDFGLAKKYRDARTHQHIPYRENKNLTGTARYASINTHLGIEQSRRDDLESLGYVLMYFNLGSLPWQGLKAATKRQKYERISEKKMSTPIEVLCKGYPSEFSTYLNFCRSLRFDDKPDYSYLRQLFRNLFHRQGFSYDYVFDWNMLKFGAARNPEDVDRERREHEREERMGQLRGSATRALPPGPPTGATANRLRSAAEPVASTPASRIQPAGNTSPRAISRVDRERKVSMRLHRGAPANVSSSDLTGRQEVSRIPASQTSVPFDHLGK
# T14 sequence (Q9BWU1 whole entry): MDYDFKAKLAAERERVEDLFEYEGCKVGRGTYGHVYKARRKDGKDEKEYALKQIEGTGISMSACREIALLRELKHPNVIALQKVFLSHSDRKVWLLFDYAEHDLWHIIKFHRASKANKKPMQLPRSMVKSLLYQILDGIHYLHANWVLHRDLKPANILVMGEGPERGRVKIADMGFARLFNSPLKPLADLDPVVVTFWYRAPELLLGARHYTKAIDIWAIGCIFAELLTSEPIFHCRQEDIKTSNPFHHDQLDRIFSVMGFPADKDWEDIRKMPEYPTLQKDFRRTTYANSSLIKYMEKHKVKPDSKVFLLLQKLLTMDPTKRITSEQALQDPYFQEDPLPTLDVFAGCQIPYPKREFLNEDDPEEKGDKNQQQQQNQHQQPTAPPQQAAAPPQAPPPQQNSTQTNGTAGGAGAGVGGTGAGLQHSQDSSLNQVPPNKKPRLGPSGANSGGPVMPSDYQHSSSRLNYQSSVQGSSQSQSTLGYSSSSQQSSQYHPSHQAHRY
smiles,measurement,setting,value
CCSc1nc(NC)c2c(-c3cccc(NC(=O)Nc4cc(C(C)(C)C)nn4-c4ccc(C)cc4)c3)c[nH]c2n1 [Compound 32],"Residual activity (% of control), CLK2",[1]; Assay Conc. 1.0E-05 M,86 % of control
same,"Residual activity (% of control), CLK2",[1]; Assay Conc. 1.0E-06 M,109 % of control
same,"Residual activity (% of control), CDC42BPA",[2]; Assay Conc. 1.0E-05 M,111 % of control
same,"Residual activity (% of control), CDC42BPA",[2]; Assay Conc. 1.0E-06 M,122 % of control
same,"Residual activity (% of control), CAMK2B",[3]; Assay Conc. 1.0E-05 M,83 % of control
same,"Residual activity (% of control), CAMK2B",[3]; Assay Conc. 1.0E-06 M,116 % of control
same,"Residual activity (% of control), DAPK3",[4]; Assay Conc. 1.0E-05 M,82 % of control
same,"Residual activity (% of control), DAPK3",[4]; Assay Conc. 1.0E-06 M,98 % of control
same,"Residual activity (% of control), CK1epsilon",[5]; Assay Conc. 1.0E-05 M,74 % of control
same,"Residual activity (% of control), CK1epsilon",[5]; Assay Conc. 1.0E-06 M,97 % of control
same,"Residual activity (% of control), BMX",[6]; Assay Conc. 1.0E-05 M,68 % of control
same,"Residual activity (% of control), BMX",[6]; Assay Conc. 1.0E-06 M,109 % of control
same,"Residual activity (% of control), CDK13/CycK",[7]; Assay Conc. 1.0E-05 M,71 % of control
same,"Residual activity (% of control), CDK13/CycK",[7]; Assay Conc. 1.0E-06 M,83 % of control
same,"Residual activity (% of control), CDK11B/CycK",[8]; Assay Conc. 1.0E-05 M,99 % of control
same,"Residual activity (% of control), CDK11B/CycK",[8]; Assay Conc. 1.0E-06 M,96 % of control
same,"Residual activity (% of control), CK1delta",[9]; Assay Conc. 1.0E-05 M,85 % of control
same,"Residual activity (% of control), CK1delta",[9]; Assay Conc. 1.0E-06 M,98 % of control
same,"Residual activity (% of control), CDK14/CycY",[10]; Assay Conc. 1.0E-05 M,75 % of control
same,"Residual activity (% of control), CDK14/CycY",[10]; Assay Conc. 1.0E-06 M,102 % of control
same,"Residual activity (% of control), CK2alpha1",[11]; Assay Conc. 1.0E-05 M,82 % of control
same,"Residual activity (% of control), CK2alpha1",[11]; Assay Conc. 1.0E-06 M,102 % of control
same,"Residual activity (% of control), CAMK2D",[12]; Assay Conc. 1.0E-05 M,67 % of control
same,"Residual activity (% of control), CAMK2D",[12]; Assay Conc. 1.0E-06 M,104 % of control
same,"Residual activity (% of control), CDK5/p25NCK",[13]; Assay Conc. 1.0E-05 M,66 % of control
same,"Residual activity (% of control), CDK5/p25NCK",[13]; Assay Conc. 1.0E-06 M,95 % of control
same,"Residual activity (% of control), CDK5/p35NCK",[13]; Assay Conc. 1.0E-05 M,76 % of control
same,"Residual activity (% of control), CDK5/p35NCK",[13]; Assay Conc. 1.0E-06 M,94 % of control
same,"Residual activity (% of control), CDK19/CycC",[14]; Assay Conc. 1.0E-05 M,54 % of control
same,"Residual activity (% of control), CDK19/CycC",[14]; Assay Conc. 1.0E-06 M,97 % of control
same,"Residual activity (% of control), ACK1",[15]; Assay Conc. 1.0E-05 M,74 % of control
same,"Residual activity (% of control), ACK1",[15]; Assay Conc. 1.0E-06 M,90 % of control
same,"Residual activity (% of control), ASK1",[16]; Assay Conc. 1.0E-05 M,71 % of control
same,"Residual activity (% of control), ASK1",[16]; Assay Conc. 1.0E-06 M,103 % of control
same,"Residual activity (% of control), AuroraB",[17]; Assay Conc. 1.0E-05 M,74 % of control
same,"Residual activity (% of control), AuroraB",[17]; Assay Conc. 1.0E-06 M,107 % of control
same,"Residual activity (% of control), CDK8/CycC",[18]; Assay Conc. 1.0E-05 M,36 % of control
same,"Residual activity (% of control), CDK8/CycC",[18]; Assay Conc. 1.0E-06 M,91 % of control
same,"Residual activity (% of control), DAPK1",[19]; Assay Conc. 1.0E-05 M,78 % of control
same,"Residual activity (% of control), DAPK1",[19]; Assay Conc. 1.0E-06 M,95 % of control
same,"Residual activity (% of control), CK2alpha2",[20]; Assay Conc. 1.0E-05 M,92 % of control
same,"Residual activity (% of control), CK2alpha2",[20]; Assay Conc. 1.0E-06 M,101 % of control
same,"Residual activity (% of control), DYRK1A",[21]; Assay Conc. 1.0E-05 M,48 % of control
same,"Residual activity (% of control), DYRK1A",[21]; Assay Conc. 1.0E-06 M,75 % of control
same,"Residual activity (% of control), CDK10/CycQ",[22]; Assay Conc. 1.0E-05 M,71 % of control
same,"Residual activity (% of control), CDK10/CycQ",[22]; Assay Conc. 1.0E-06 M,98 % of control
same,"Residual activity (% of control), CK1gamma3",[23]; Assay Conc. 1.0E-05 M,99 % of control
same,"Residual activity (% of control), CK1gamma3",[23]; Assay Conc. 1.0E-06 M,106 % of control
